Here are results for nine compounds from patent US7101911B2, “Tryptase inhibitors” (Altana Pharma AG, priority 2001, dated 2006).

The target of the experiment is human tryptase. The experiment in a line: Inhibition of human tryptase (apparent dissociation constant, tos-Gly-Pro-Arg-pNA cleavage). The format is biochemical. As to conditions: in the presence of substrate; heparin 0.1–50 μg/ml; equilibrium conditions; read-out: Kiapp (apparent dissociation constant of tryptase-inhibitor complex). The source says: The documented pathophysiological effects of mast cell tryptase are caused directly by the enzymatic activity of the protease. Accordingly, they are reduced or blocked by inhibitors which inhibit the enzymatic activity of the tryptase. A suitable measure for the affinity of a reversible inhibitor to the target protease is the equilibrium dissociation constant Ki of the enzyme-inhibitor complex. This Ki value can be determined via the effect of the inhibitor on the tryptase-induced cleavage of a chromogenic peptide-p-nitroanilide substrate or a fluorogenic peptide-aminomethylcoumarin substrate.
The dissociation constants for the tryptase-inhibitor complexes are determined under equilibrium conditions in accordance with the general proposals of Bieth (Bieth J G, Pathophysiological interpretation of kinetic constants of protease inhibitors, Bull. Europ. Physiopath. Resp. 16:183–195, 1980) and the methods of Sommerhoff et al. (Sommerhoff C P et al., A Kazal-type inhibitor of human mast cell tryptase: isolation from the medical leech Hirudo medicinalis, characterization, and sequence analysis, Biol. Chem. Hoppe-Seyler 375: 685–694, 1994).
Human tryptase is isolated from lung tissue or prepared recombinantly; the specific activity of the protease, determined by titration, is usually greater than 85% of the theoretical value. In the presence of heparin (0.1–50 μg/ml) for stabilizing the protease, constant amounts of the tryptase are incubated with increasing amounts of the inhibitors. After an equilibrium between the reaction partners has formed, the remaining enzyme activity after addition of the peptide-p-nitroanilide substrate tos-Gly-Pro-Arg-pNA is determined and the cleavage of the latter is monitored at 405 nm for 3 min. Alternatively, the remaining enzymatic activity can also be determined using fluorogenic substrates. The apparent dissociation constants Kiapp (i.e. in the presence of substrate) are subsequently determined by adapting the enzyme rates to the general equation for reversible inhibitors (Morrison J F, Kinetics of the reversible inhibition of enzyme-catalysed reactions by tight-binding inhibitors, Biochim. Biophys. Acta 185, 269–286, 1969) using non-linear regression: V1/V0=1−{Et+It+Kiapp−[(Et+It+Kiapp)^2−4EtIt]^1/2}/2Et
V1 and V0 are the rates in the presence and absence, respectively, of the inhibitor, and Et and It are the tryptase and inhibitor concentrations, respectively.
The apparent dissociation constants determined for the compounds according to the invention are shown in Table A below, where the numbers of the compounds correspond to the numbers of the compounds in the examples.

Counter-ions that a name gives are not always drawn.

With `NCc1ccc(CNC(=O)OCC#Cc2cc(C#CCOC(=O)NCc3ccc(CN)cc3)cc(CO)c2)cc1` [Compound 1, 3,5-Bis-[3-(4-aminomethylbenzylaminocarbonyloxy)prop-1-ynyl]-1-hydroxymethyl-benzene dihydrochloride], the Ki was found to be 14 nM.

For the compound `COC(=O)c1cc(C#CCOC(=O)NCc2cccc(CN)c2)cc(C#CCOC(=O)NCc2cccc(CN)c2)c1` [Compound 2, Methyl 3,5-bis-[3-(3-aminomethylbenzylaminocarbonyloxy)prop-1-ynyl]benzoate dihydrochloride], the Ki came out at 1.6 nM. On to `NCc1cccc(CNC(=O)OCC#Cc2cc(C#CCOC(=O)NCc3cccc(CN)c3)cc(C(=O)O)c2)c1` [Compound 3, 3,5-Bis-[3-(3-aminomethylbenzylaminocarbonyloxy)prop-1-ynyl]benzoic acid dihydrochloride], for which the Ki amounted to 40 nM.

Take `COC(=O)c1cc(C#CCOC(=O)NCc2ccc(CN)cc2)cc(C#CCOC(=O)NCc2ccc(CN)cc2)c1` [Compound 4, Methyl 3,5-bis-[3-(4-aminomethylbenzylaminocarbonyloxy)prop-1-ynyl]benzoate dihydrochloride]: the Ki was 58 nM. As for `NCc1ccc(CNC(=O)OCC#Cc2cc(C#CCOC(=O)NCc3ccc(CN)cc3)cc(C(=O)O)c2)cc1` [Compound 5, 3,5-Bis-[3-(4-aminomethylbenzylaminocarbonyloxy)prop-1-ynyl]benzoic acid dihydrochloride], the Ki turned out to be 250 nM. As to `COC(=O)c1cc(C#CCOC(=O)NCc2cccc(CN)c2)ccc1C#CCOC(=O)NCc1cccc(CN)c1` [Compound 6, Methyl 2,5-bis-[3-(3-aminomethylbenzylaminocarbonyloxy)prop-1-ynyl]benzoate dihydrochloride], the Ki turned out to be 0.3 nM.

Take `NCc1cccc(CNC(=O)OCC#Cc2ccc(C#CCOC(=O)NCc3cccc(CN)c3)c(C(=O)O)c2)c1` [Compound 7, 2,5-Bis-[3-(3-aminomethylbenzylaminocarbonyloxy)prop-1-ynyl]benzoic acid dihydrochloride]: the Ki came to 8.6 nM. `COC(=O)c1cc(C#CCOC(=O)NCc2cccc(CN)c2)c(C(=O)OC)cc1C#CCOC(=O)NCc1cccc(CN)c1` [Compound 8, Dimethyl 2,5-bis-[3-(3-aminomethylbenzylaminocarbonyloxy)prop-1-ynyl]terephthalate dihydrochloride]: the Ki was determined as 2.3 nM. Turning to `CCOC(=O)c1cc(OCC#CCOC(=O)NCc2cccc(CN)c2)c(C(=O)OCC)cc1OCC#CCOC(=O)NCc1cccc(CN)c1` [Compound 9, Diethyl 2,5-bis-[4-(3-aminomethylbenzylaminocarbonyloxy)but-2-ynyl-1-oxy]terephthalate dihydrochloride], the Ki was determined as 6 nM.
